Entries after “also recorded” stand apart in the source; their conditions may differ. Peptide text beside a SMILES is read from it.
Assays:
[1] = test system: CD8+ T cells propagated from islets of acutely diabetic NOD mice; assay: Killing of peptide-pulsed RMA-SKd cells by islet-derived CD8+ T cell lines and clones; format: cell-based
Excerpt: To confirm that the islet associated CD8^+ T cells of most NOD mice contain clones capable of recognizing the NRP/Kd complex, we generated 31 CD8^+ CTL clones from islets of 9 NOD mice, and tested the clones' ability to kill NRP- or TUM-pulsed RMA-SKd cells. Of the 31 clones tested, 14 (45%) were cytotoxic against NRP-, but not TUM-pulsed, RMA-SKd targets (FIGS. 7B and C).

[2] = test system: naïve or activated 8.3-CD8+ T cells; assay: Functional testing of NRP mimics (proliferation, cytokine secretion, cytotoxicity, antagonism); format: cell-based, mouse (8.3-TCRαβ-transgenic NOD)
Excerpt: To test the validity of this hypothesis, we produced mimics of NRP capable of engaging the 8.3-TCR (a TCR that is representative of the TCRs used by NRP-reactive CD8^+ T cells in the NOD mouse) with very low or very high affinity (when compared to NRP and NRP-A7). This was done by generating numerous single amino acid mutants of NRP (NRP mimics) and by testing the ability of each mutant to elicit proliferation, cytokine secretion and cytotoxicity of naïve or activated 8.3-CD8^+ T cells. Some of the NRP mimics that were unable to elicit the activation of naïve 8.3-CD8^+ T cells were tested for antagonism. Antagonist mimics are unable to elicit the functional activity of T cells but antagonized the agonistic activity of functional mimics (i.e. NRP and NRP-A7). […] Of these, NRP-A4 was the most powerful and was chosen for further experimentation. […] FIG. 15 compares the agonistic properties of all these peptides on naïve 8.3-CD8^+ T cells.
To test the validity of this hypothesis, we produced mimics of NRP capable of engaging the 8.3-TCR (a TCR that is representative of the TCRs used by NRP-reactive CD8^+ T cells in the NOD mouse) with very low or very high affinity (when compared to NRP and NRP-A7). This was done by generating numerous single amino acid mutants of NRP (NRP mimics) and by testing the ability of each mutant to elicit proliferation, cytokine secretion and cytotoxicity of naïve or activated 8.3-CD8^+ T cells. Some of the NRP mimics that were unable to elicit the activation of naïve 8.3-CD8^+ T cells were tested for antagonism. Antagonist mimics are unable to elicit the functional activity of T cells but antagonized the agonistic activity of functional mimics (i.e. NRP and NRP-A7). […] Peptide-induced responses are color-coded from low, medium, […], high and very high (blue, yellow, green and red, respectively). The data are representative of 3 different experiments.
Of these, NRP-A4 was the most powerful and was chosen for further experimentation. […] FIG. 15 compares the agonistic properties of all these peptides on naïve 8.3-CD8^+ T cells.

[3] = test system: 8.3-TCR on 8.3-CD8+ T cells; assay: Peptide/MHC tetramer binding to 8.3-CD8+ T cells; parameters: species or system mouse (8.3-TCRαβ-transgenic NOD)
Excerpt: (§1) To confirm that these peptides were recognized with different avidity by 8.3-CD8^+ T cells, we produced and tested peptide/MHC tetramers as previously described (39). A tetramer is preferably used in avidity determinations because tetramers bind more strongly than the corresponding monomers, while maintaining the same relative avidities when a plurality of ligands are compared. […] These peptides were recognized with different avidity not only by 8.3-CD8^+ T cells, but also by the polyclonal NRP-reactive CD8^+ T cells that can be propagated from the pancreatic islets of 20 wk-old NOD mice.
(§2) In order to follow the accumulation of antigen-specific CD8^+ T cells in islets of pre-diabetic NOD mice, we generated H-2Kd tetramers containing the peptides NRP, NRP-A7, TUM or INS [LYLVCGERG; an insulin-derived peptide recognized by islet-associated T cells from young NOD mice (38)]. The NRP and NRP-A7 tetramers stained virtually all the splenic CD8^+ T cells from 8.3-TCRαβ-transgenic NOD mice, but <1% of the splenic CD8^+ T cells from NOD mice. The INS tetramer stained the INS-reactive CTL clone G9C8 (38), but neither this tetramer nor the negative control tetramer (TUM) stained the splenic CD8^+ T cells from NOD or 8.3-TCRαβ-transgenic NOD mice (data not shown).
To confirm that these peptides were recognized with different avidity by 8.3-CD8^+ T cells, we produced and tested peptide/MHC tetramers. […] These peptides were recognized with different avidity not only by 8.3-CD8^+ T cells, but also by the polyclonal NRP-reactive CD8^+ T cells that can be propagated from the pancreatic islets of 20 wk-old NOD mice.

[4] = test system: islet-derived CD8+ T cells; assay: Peptide/H-2Kd tetramer staining of islet-derived CD8+ T cells; format: binding, NOD mice
Excerpt: as §1
Since tetramer-reactive cells represent a very small fraction of all the islet-associated T cells, we analyzed the presence of tetramer-reactive clonotypes within the cell population that has undergone antigen-driven activation and thus is likely to contain autoreactive specificities. Islets from non-diabetic 5, 9, 15 and 20 wk-old NOD mice were cultured in the presence of rIL-2 for 6-7 d, to selectively expand IL-2R-positive T cells [˜10% of all the islet-associated CD8^+ T cells (30)]. There were age-dependent increases in the number of T cells recovered from NOD islets and in the % of CD8^+ T cells contained within lines. […]

NOD mice = assay: Development of spontaneous autoimmune diabetes in peptide-treated NOD female mice; format: in vivo
Excerpt: To test whether the hypothesis could in fact predict the different outcomes outlined in Table I, we treated groups of NOD female mice with repeated injections of NRP-A4, NRP-I4 and NRP-V7, and followed the mice for development of spontaneous autoimmune diabetes. T cells were also harvested from the treated mice and tested with various ligand/MHC tetramers to determine the impact of the treatment on T cell populations. […] Since these cells have higher diabetogenic potential (see above), it is likely that their accumulation into islets is the single mechanism that accounts for the accelerated onset of diabetes seen in NRP-I4-treated mice. […]
The hypothesis put forth above predicted that, in vivo, each of these peptides would trigger T cells differently depending on the T cells' avidity for NRP. This is summarized in Table I. To test whether the hypothesis could in fact predict the different outcomes outlined in Table I, we treated groups of NOD female mice with repeated injections of NRP-A4, NRP-I4 and NRP-V7, and followed the mice for development of spontaneous autoimmune diabetes. […] Since these cells have higher diabetogenic potential (see above), it is likely that their accumulation into islets is the single mechanism that accounts for the accelerated onset of diabetes seen in NRP-I4-treated mice.
To test the effect of dosage of the peptide ligands on T cell clonal delection or expansion, we treated groups of NOD female mice with repeated injections of “low” or “high” doses of TUM (negative control), NRP, NRP-A7, NRP-A4, NRP-I4 and NRP-V7. Low concentrations of peptide were prepared by resuspending 100 mg of dry peptide in PBS in the absence of acids. The peptides in these preparations, which were also used in previous Examples, are aggregated, and the effective concentrations were low. Soluble, high concentrations of peptide were prepared by diluting 100 mg of soluble peptide (solubilized in the presence of acid) in PBS. The mice were followed for development of spontaneous autoimmune diabetes.

[5] = test system: NRP-A7-reactive CD8+ T cells; assay: Islet-associated CD8+ T cells of peptide-treated NOD mice (tetramer staining, binding kinetics, cytotoxicity); format: in vivo
Excerpt: To test whether the hypothesis could in fact predict the different outcomes outlined in Table I, we treated groups of NOD female mice with repeated injections of NRP-A4, NRP-I4 and NRP-V7, and followed the mice for development of spontaneous autoimmune diabetes. T cells were also harvested from the treated mice and tested with various ligand/MHC tetramers to determine the impact of the treatment on T cell populations. […] Since these cells have higher diabetogenic potential (see above), it is likely that their accumulation into islets is the single mechanism that accounts for the accelerated onset of diabetes seen in NRP-I4-treated mice.
To ascertain whether the NRP-A7 treatment had induced the deletion of NRP-A7-reactive CD8^+ T cells, we examined islets of peptide-treated, non-diabetic 32 wk-old mice for the presence of this T cell population. […] To determine whether this resulted from the absence of clonotypes bearing high affinity TCRs for NRP-A7, we compared the kinetics of NRP-A7 tetramer binding to CD8^+ T cells derived from peptide-treated mice. […] Since treatment with NRP-A7 also halted the progression from benign to pernicious islet inflammation, we concluded that development of IDDM in NOD mice requires the avidity maturation of the NRP-A7-reactive CD8^+ T cell population.
The effect of the peptides on T cell populations was also determined.

8.3-CD8+ T cells = assay: Repeated peptide administration to 8.3-TCRαβ-transgenic NOD mice; format: in vivo; details: repeated administration via i.p. and f.p. routes; unpublished data
[6] = test system: INS-reactive CTL clone G9C8; assay: Tetramer staining of CTL clone G9C8; format: binding; details: H-2Kd tetramer
Excerpt: as §2

## CC(C)C[C@H](NC(=O)[C@H](Cc1ccccc1)NC(=O)[C@H](Cc1c[nH]c2ccccc12)NC(=O)[C@H](CC(N)=O)NC(=O)[C@H](C)NC(=O)[C@H](CCCCN)NC(=O)[C@H](CC(N)=O)NC(=O)[C@H](Cc1ccc(O)cc1)NC(=O)[C@@H](N)CCCCN)C(=O)O [NRP, KYNKANWFL] (H-KYNKANWFL-OH; N-terminus and C-terminus assumed)
[1]; 14 of 31 clones from 9 NOD mice
  islet-derived CD8+ CTL clones cytotoxic against peptide-pulsed RMA-SKd targets: 45%

## KYNKANAFL [NRP-A7]
[2]
  functional class of the peptide on 8.3-CD8+ T cells: super-agonist
[2]; Table I
  Function: superagonist
[2]; Table II
  Function (of Function/Avidity): superagonist
[2]; naive 8.3-CD8+ T cells
  agonistic/antagonistic activity, comparative statement: superior agonistic properties
[3]
  avidity class of the peptide: high avidity
[3]; Table II
  Avidity (of Function/Avidity): high
[3]; peptide/MHC tetramer, proportional to fluorescence intensity of stained T cells
  avidity of tetramer binding to 8.3-CD8+ T cells: increased avidity
[3]; splenic CD8+ T cells from 8.3-TCRαβ-transgenic NOD mice
  splenic CD8+ T cells stained by tetramer: virtually all
[4]; by 15 wk, islets cultured with rIL-2 6-7 d
  size of the tetramer-reactive CD8+ T cell population in islets: ~18%
[4]; islets of 20 wk-old NOD mice
  number of islet-derived CD8+ T cells bound by tetramer, comparative: more cells bound the NRP-A7 than the NRP tetramers
[1]; reference 37
  islet-associated CD8+ T cell clones recognizing the peptide: 45%
  islet-associated CD8+ T cell lines recognizing the peptide: 87%
NOD mice; Table II, effect on diabetes, high dose, repeated injections
  Action (high dose): No effect
NOD mice; Table II, effect on diabetes, low dose, repeated injections
  Action (low dose): protective
NOD mice; high concentration (acid-solubilized peptide in PBS), repeated injections
  effect on diabetes at high dose/concentration: no effect; also recorded: rather ineffective; also recorded: did not efficiently protect the mice from diabetes
NOD mice; low concentration (aggregated peptide in PBS), repeated injections
  effect on diabetes at low dose/concentration: anti-diabetogenic; also recorded: significant protective effect; also recorded: diabetes resistance
NOD mice; repeated injections (100 μg in PBS i.p. in Example 6), low dosage according to b141
  development of IDDM/diabetes in treated NOD mice: highly protected
[5]; NRP-A7-pulsed RMA-SKd targets
  cytotoxicity of islet-derived CD8+ T cells of treated mice: less cytotoxic to NRP-A7-pulsed, RMA-SKd targets than those derived from NRP- or control peptide-treated mice
[5]; b198: high concentration NRP-A7, low and high concentrations NRP-V7
  insulin 15-23-reactive CD8+ T cells in islets of treated mice: significantly increased percentages of insulin 15-23 tetramer-reactive CD8^+ T-cells
[5]; high concentration
  effect on NRP-A7-reactive T cells in islets, high concentration: nearly complete deletion of all NRP-A7-reactive cells
[5]; low concentration
  effect on NRP-A7-reactive T cells in islets, low concentration: fostered the accumulation of low avidity NRP-A7-reactive T-cells in islets
[5]; repeated injections
  effect of treatment on high/low avidity NRP-reactive CD8+ T cell subpopulations (conclusion): blunted the avidity maturation of the NRP-A7-reactive CD8^+ T cell population; also recorded: promoted the expansion of the low avidity T cell subpopulation; also recorded: selectively eliminated those NRP-A7-reactive CD8^+ T cells expressing high affinity TCRs for NRP-A7
[5]; repeated injections, low dosage according to b141
  NRP/NRP-A7 tetramer-reactive CD8+ T cells in islets of treated mice: greater numbers of NRP-A7 tetramer-reactive cells than control peptide-treated mice
8.3-CD8+ T cells
  effect on 8.3-CD8+ T cells: induced the deletion of 8.3-CD8^+ T cells

## LYLVCGERG [INS, insulin-derived peptide recognized by islet-associated T cells from young NOD mice]
[6]
  tetramer staining of CTL clone G9C8: stained
